# Laboratory results reported in patent US20230233695A1, “MITHRAMYCIN A NANOPARTICLES FOR CANCER TREATMENT” (priority 2021, published 2023).
# How the values were obtained:
# Rad51 [1] = experiment: RT-qPCR, Rad51 mRNA expression; assay type: cell-based; conditions: 10 nM, 3 cell lines tested
# Protocol: Assessment of mRNA expression by RT-qPCR. Total RNA was extracted from EWS:Fli1^+ cell cultures (TC-71, A673, and RD-ES) exposed to 10 nM of MithA/MANP (final concentration) or DMSO, (0.01% v/v) vehicle and blank polymer for 24 hours by the RNeasy technique with RNeasy columns with on-column DNAse I digestion (Qiagen, Valencia, Calif.) according to the manufacturer's instructions. The concentration and purity of the extracts were determined by UV absorbance at 230/260/280/320 nm wavelengths using a Tecan Infinite M200 spectrophotometer. Template cDNA was synthesized from […] of RNA extract by reverse-transcription using the Quantitect RT kit (Qiagen). Oligonucleotide primer sequences and more detailed information described in Supplemental Table S4). RT-PCR was performed using Quantitect SYBR-green qPCR reagents in a Mastercycler ep Realplex2 instrument (Eppendorf AG, Hamburg, Germany). […] Relative quantification of mRNA expression between MithA/MANP or vehicle/blank polymer treated cells were semi-quantitatively calculated by comparing the average threshold cycle (Ct) for the treated samples to the average Ct for untreated samples (Vehicle or blank polymer. Amplification efficiency was determined for each primer set, and the Pfaffl equation to determine relative fold change in gene expression. Beta-actin was used as the housekeeping gene for normalization.
# Rad51 [2] = experiment: Western blotting, Rad51 protein expression; assay type: cell-based; conditions: 10 nM, 24 hours
# Protocol: Western Blotting. Expression Western blotting was performed to assess the expression of NR0B1 (EWS:Fli1 target gene) and Rad 51 (DNA homologous recombination repair HRR) at protein level as provisory described in Lin et al 2021. Briefly, cells were grown to ˜70% confluence and exposed to 10 nM of MithA/MANP (final concentration) or DMSO, (0.01% v/v) vehicle and blank polymer for 24 hours. Lysates were collected in cold RIPA lysis buffer supplemented with 1×HALT protease/phosphatase inhibitor cocktail (Thermo Scientific) and clarified by centrifugation. Protein concentration of the supernatant was determined by BCA assay (Thermo Scientific), and then diluted in 4× loading buffer (Licor Inc., Lincoln, Nebr.) containing 1× NuPAGE reducing agent (Life Technologies). Prior to electrophoresis, samples were denatured by incubating at 70° C. for 10 minutes. Samples were then resolved (25 μg/lane) on 4-20% gradient SDS-PAGE gels and transferred to low-fluorescence PVDF membranes (Bio-Rad Inc., Hercules Calif.). Transfer efficiency and equivalence of total protein load was assessed using Revert 700 Total Protein Stain kits (Licor Inc). Membranes were then washed, blocked in Odyssey Blocking Buffer (PBS) (Licor Inc), and incubated with primary antibodies (Table S4.3 above) overnight at 4° C. diluted in blocking buffer.
smiles,measurement,setting,value
"CO[C@H](C(=O)[C@@H](O)[C@@H](C)O)[C@@H]1Cc2cc3cc(O[C@H]4C[C@@H](O[C@H]5C[C@@H](O)[C@H](O)[C@@H](C)O5)[C@H](O)[C@@H](C)O4)c(C)c(O)c3c(O)c2C(=O)[C@H]1O[C@H]1C[C@@H](O[C@H]2C[C@@H](O[C@H]3C[C@](C)(O)[C@H](O)[C@@H](C)O3)[C@@H](O)[C@@H](C)O2)[C@H](O)[C@@H](C)O1 [MithA, (2S,3S)-2-[(2S,4R,5R,6R)-4-[(2S,4R,5S,6R)-4-[(2S,4S,5R,6R)-4,5-dihydroxy-4,6-dimethyloxan-2-yl]oxy-5-hydroxy-6-methyloxan-2-yl]oxy-5-hydroxy-6-methyloxan-2-yl]oxy-3-[(1 S,3S,4R)-3,4-dihydroxy-1-methoxy-2-oxopentyl]-6-[(2S,4R,5R,6R)-4-[(2S,4R,5S,6R)-4,5-dihydroxy-6-methyloxan-2-yl]oxy-5-hydroxy-6-methyloxan-2-yl]oxy-8,9-dihydroxy-7-methyl-3,4-dihydro-2H-anthracen-1-one]",Rad51 mRNA expression,Rad51 [1],unable to detect significant inhibition
same,Rad51 protein expression,Rad51 [2],Down-regulated
